Among the test systems are A498 renal; NCI-H23 lung; IGROV1 ovarian; HCT-116 colon; COLO 205 colon; CCRF-CEM leukemia; 786-0 renal; T-47D breast; SK-MEL-5 melanoma; DU-145 prostate; HT29 colon.
Holding throughout (experiment): NCI anticancer screen, dose series, 48 h

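48-hour exposure; five concentrations; linearly interpolated endpoints. TGI: total growth inhibition.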

These results are taken from PubChem BioAssay (NCI).

For the compound `COc1c(-c2cccs2)oc2c(CC(=O)O)cccc2c1=O`, the TGI in the test on A498 renal, in the test on NCI-H23 lung, in the test with IGROV1 ovarian, in the test with HCT-116 colon, in the test with COLO 205 colon and with CCRF-CEM leukemia was more than 100 µM each time. Further, the TGI in the test with 786-0 renal, in the test with T-47D breast, with SK-MEL-5 melanoma and in the test with DU-145 prostate was more than 100 µM each time.

As to `COC12OC3CC4(C)C(=CC3OC(OC(C)C1O)C2O)CCC1C4CCC2(C)C(c3ccc(=O)oc3)CCC12O` (stereo not drawn), the TGI was determined as 0.00277 µM with HT29 colon; 0.0144 µM in the test with A498 renal; 0.00177 µM with NCI-H23 lung; 0.00389 µM with IGROV1 ovarian; 0.00193 µM in the test on HCT-116 colon; 0.00208 µM in the test with CCRF-CEM leukemia. Also, the TGI in the test with 786-0 renal came out at 0.00195 µM; in the test with T-47D breast, 0.0782 µM; in the test with SK-MEL-5 melanoma it was 0.00171 µM; with DU-145 prostate, 0.00209 µM.

Turning to `NC(=O)C[C@H](NC(=O)C1(NC(=O)[C@H](Cc2ccc(CP(=O)(O)O)cc2)NC(=O)C(=O)O)CCCCC1)C(=O)NCCCc1cccc2ccccc12`, the TGI in the test with HT29 colon, in the test with A498 renal, with NCI-H23 lung, in the test on IGROV1 ovarian, with HCT-116 colon and with COLO 205 colon was more than 10 µM in each case. In addition, the TGI in the test with CCRF-CEM leukemia, in the test with 786-0 renal, in the test with T-47D breast, with SK-MEL-5 melanoma and in the test on DU-145 prostate was more than 10 µM each time.

In the case of `COc1ccc(CCNC(=O)CCCCCO)cc1OC`, the TGI with HT29 colon, in the test on A498 renal, in the test with NCI-H23 lung, in the test on IGROV1 ovarian, in the test on HCT-116 colon and in the test on COLO 205 colon was more than 100 µM throughout. For the same compound, the TGI with CCRF-CEM leukemia, with 786-0 renal, in the test on T-47D breast, with SK-MEL-5 melanoma and with DU-145 prostate was more than 100 µM throughout.

Take `COc1cccc2c1-c1c(OC)cccc1SS2`: the TGI was 36.2 µM in the test on HT29 colon; 27.4 µM with A498 renal; 72.8 µM in the test with NCI-H23 lung; 41.6 µM in the test on IGROV1 ovarian; 40.4 µM with HCT-116 colon; 56.6 µM with COLO 205 colon. Moreover, the TGI in the test on 786-0 renal is 36.2 µM; with SK-MEL-5 melanoma, 26.5 µM; in the test with DU-145 prostate, more than 100 µM.

Consider `CC(C)(C)c1cc(/C=C/C(=O)CC(=O)/C=C/c2cc(C(C)(C)C)c(O)c(C(C)(C)C)c2)cc(C(C)(C)C)c1O`, for which the TGI in the test on HT29 colon, in the test on NCI-H23 lung, with IGROV1 ovarian, in the test with HCT-116 colon, with COLO 205 colon and in the test with CCRF-CEM leukemia was more than 50 µM each time. For the same compound, the TGI in the test on 786-0 renal, with SK-MEL-5 melanoma and with DU-145 prostate was more than 50 µM in each case.

`O=C(O)CN(CC(=O)O)Cc1ccn(-c2cccc(-n3ccc(CN(CC(=O)O)CC(=O)O)n3)n2)n1`: the TGI in the test with HT29 colon, in the test with NCI-H23 lung, in the test with IGROV1 ovarian, with HCT-116 colon, in the test with COLO 205 colon and in the test on 786-0 renal was more than 100 µM in each case. For the same compound, the TGI in the test with T-47D breast, in the test with SK-MEL-5 melanoma and in the test with DU-145 prostate was more than 100 µM throughout.

Consider `CCOC(=O)c1cn(CC)c2cc3c(cc2c1=O)CCS3(=O)=O`, for which the TGI in the test with HT29 colon, with A498 renal, in the test on NCI-H23 lung, with IGROV1 ovarian, in the test with HCT-116 colon and in the test with CCRF-CEM leukemia was more than 100 µM throughout. The TGI in the test on 786-0 renal, with T-47D breast, in the test with SK-MEL-5 melanoma and in the test on DU-145 prostate was more than 100 µM each time.

Take `CN(C)CCCNc1cnc2cc3ccccc3cc2n1`: the TGI is 30.5 µM in the test with HT29 colon; more than 100 µM in the test with A498 renal; more than 100 µM in the test with NCI-H23 lung; 31.8 µM with IGROV1 ovarian; 99.3 µM in the test on HCT-116 colon; 38.8 µM in the test on COLO 205 colon. Moreover, the TGI with CCRF-CEM leukemia is 88.1 µM; in the test with 786-0 renal it was more than 100 µM; in the test with SK-MEL-5 melanoma, 45 µM; with DU-145 prostate, more than 100 µM.

Take `CN1CCN(/C(N)=C(\C#N)C(=O)Nc2ccccc2)CC1`: the TGI with A498 renal, with NCI-H23 lung, in the test on IGROV1 ovarian, with HCT-116 colon, in the test with COLO 205 colon and in the test on CCRF-CEM leukemia was more than 100 µM each time. Further, the TGI with 786-0 renal, with T-47D breast, with SK-MEL-5 melanoma and in the test with DU-145 prostate was more than 100 µM throughout.

Turning to `COc1cc2c(cc1OC(=O)c1cc3ccccc3[nH]1)N=C[C@@H]1CCCN1C2=O`, the TGI in the test on HT29 colon is 0.36 µM; with A498 renal, 0.599 µM; in the test with IGROV1 ovarian, more than 39.6 µM; in the test on HCT-116 colon it was 3.19 µM; in the test with COLO 205 colon, 0.405 µM; in the test with CCRF-CEM leukemia, 1.95 µM. Besides, the TGI amounted to 4.23 µM with 786-0 renal, 6.25 µM in the test with T-47D breast, 0.335 µM in the test on SK-MEL-5 melanoma and 11.7 µM in the test on DU-145 prostate.

Regarding `CO[C@H]1C[C@H](n2cc(C)c(=O)[nH]c2=O)O[C@@H]1CO`, the TGI with HT29 colon, in the test with A498 renal, in the test on NCI-H23 lung, in the test with IGROV1 ovarian, in the test on HCT-116 colon and with COLO 205 colon was more than 100 µM each time. Besides, the TGI in the test with CCRF-CEM leukemia, in the test on 786-0 renal, in the test on SK-MEL-5 melanoma and with DU-145 prostate was more than 100 µM each time.

For the compound `COc1ccc(NCc2cnc3nc(N)nc(N)c3c2C)cc1`, the TGI in the test with HT29 colon, with A498 renal, in the test with NCI-H23 lung, in the test with IGROV1 ovarian, in the test on COLO 205 colon and in the test on CCRF-CEM leukemia was more than 100 µM in each case. Besides, the TGI is more than 100 µM in the test with 786-0 renal, more than 92.8 µM in the test on T-47D breast and more than 100 µM in the test on SK-MEL-5 melanoma.
